Read-outs that look alike come from different tables or passages of the source. Positions of bridges follow the written chain, without caps; N, C: chain ends. Chains are numbered I, II in the order given. No end group written: not given here.
How the values were obtained:
[1] = system: gram-positive bacteria and gram-negative bacteria, including aerobic and anaerobic bacteria and yeast; test: Antimicrobial spectrum, MIC in liquid medium (Experiment 12), overall; type: cell-based; conditions: many types of gram-positive and gram-negative bacteria and yeast; peptone or PYG medium
Description: The various microorganisms shown in Table 3 and in Table 4 were incubated for 16 to 20 hours in 2 ml of peptone medium which consisted of 1% Bactopeptone (manufactured by Difco Laboratory Co.), or in 2 ml of PYG medium which consisted of 1% Bactopeptone (manufactured by Difco Laboratory Co.), 1% glucose and 0.05% yeast extract. The antimicrobial peptide was added to each medium at various ratios of 0 μg/ml to 60 μg/ml. Standard bacterial strains of various microorganisms in the logarithmic phase were inoculated into the various media at a cell concentration of 10^6 /ml and incubated at 37° C., with the exception of the bacterial strains mentioned in the footnotes of the tables. The growth of the various microorganisms was studied by measuring the light absorption at 660 nm.

various fungi = conditions: 20 h
Escherichia coli = type: cell-based; conditions: 16 h
Description: Bactocasitone (manufactured by Difco Laboratory Co.) was dissolved at a concentration of 1% in purified water, the pH was adjusted to 7.0 with 1M sodium hydroxide, the solution was sterilized at 115° C. for 15 minutes and a basal medium (liquid medium) was prepared. Each sample was dissolved at a concentration of […] in purified water, sterilization was performed by using a sterilization filter (manufactured by […] Co.) and test media, prepared by adding samples at concentrations of 1, 5, 10, 50 and 100 ppm to the basal medium, as well as a control medium with no added samples, were prepared. […] wherein A is the difference in turbidity of the test culture medium (the difference between the turbidity of the test culture medium after 16 hours of culture and the turbidity of the test culture medium before the culturing) and B is the turbidity of the control medium (the difference between the turbidity of the control culture medium after 16 hours of culture and the turbidity of the control culture medium before the culturing). The percentages of the rate of inhibition of proliferation are not in weight (same hereinafter).

| Molecule | concentration showing antimicrobial activity (MIC, summary of Tables 3 and 4) [1] | concentration showing antimicrobial activity (MIC, summary of Table 7) (various fungi) | inhibitory rate (rate of inhibition of E. coli proliferation) (Escherichia coli; 1 ppm) [%] | inhibitory rate (rate of inhibition of E. coli proliferation) (Escherichia coli; 5 ppm) [%] | inhibitory rate (rate of inhibition of E. coli proliferation) (Escherichia coli; 10 ppm) [%] | inhibitory rate (rate of inhibition of E. coli proliferation) (Escherichia coli; 50 ppm) [%] | inhibitory rate (rate of inhibition of E. coli proliferation) (Escherichia coli; 100 ppm) [%] |
| --- | --- | --- | --- | --- | --- | --- | --- |
| CC[C@H](C)[C@@H]1NC(=O)[C@H](CO)NC(=O)[C@@H]2CCCN2C(=O)[C@H](C)NC(=O)CNC(=O)[C@H](CC(C)C)NC(=O)[C@H](CCCCN)NC(=O)[C@H](CCCCN)NC(=O)[C@H](CCSC)NC(=O)[C@H](CCCNC(=N)N)NC(=O)[C@H](Cc2c[nH]c3ccccc23)NC(=O)[C@H](CCC(N)=O)NC(=O)[C@H](Cc2c[nH]c3ccccc23)NC(=O)[C@H](CCCNC(=N)N)NC(=O)[C@H](CCCNC(=N)N)NC(=O)[C@@H](NC(=O)[C@H](CCCCN)NC(=O)[C@@H](N)Cc2ccccc2)CSSC[C@@H](C(=O)N[C@H](C(=O)N[C@@H](CCCNC(=N)N)C(=O)N[C@@H](CCCNC(=N)N)C(=O)N[C@@H](C)C(=O)N[C@@H](Cc2ccccc2)C(=O)O)C(C)C)NC(=O)[C@H]([C@@H](C)O)NC1=O [antimicrobial peptide of Example 1] | less than 45 μg/ml | less than 45 μg/ml | – | – | – | – | – |
| I: VSQPEATKCFQWQRNMRKVRGPPVSCIKRDSPIQCI / II: GRRRRSVQWCA (disulfide I:9-I:26, I:35-II:10) [antimicrobial peptide of Example 3] | – | – | 3 | 86 | 100 | 100 | 100 |
